# Results: patent publication US6337397B1, “Pyrimidine derivatives and their salts, useful for making benzoxazepine derivatives” (Suntory Limited, priority 1995, dated 2002)
# Where two headings read alike, the source gives them in different places.
# Experiments:
# male Wistar rats = experiment: Anticonflict action, NaCl-Lick conflict method; assay type: in vivo; conditions: Rattus norvegicus, po, 1 hour before the test; number of licks in 5 minutes of 2% saline; rats deprived of water for 48 hours; read-out: Minimum effective dosage
# Experimental: The anticonflict action of the compounds of the general formulae (I), (II), and (III) was evaluated in accordance with the NaCl-Lick conflict method of Tanga et al. (Pharmacol., Biochem., Behav., vol. 32, pp. 773-776, 1989). That is, six-week old male Wistar rats in groups of six to 10 were deprived of water for 48 hours and placed in an experimental apparatus placed in a soundproof box (apparatus made of acrylic resin, 20×20×30 cm, provided with a drinking outlet having a diameter of 1 cm at height of 8 cm from the floor, designed to be able to measure the number of drops per unit hour by a drinkometer), and the anticonflict action of the medicament was evaluated using as an indicator the number of drops (number of licks) in 5 minutes from the start of drinking of 2% saline. The tested medicament was orally administered in an amount of 0.2 ml/100 g body weight 1 hour before the start of the test.
# dopamine D2 receptor = target: T1, dopamine D2 receptor (Rattus norvegicus, UniProt P61169); experiment: Affinity with dopamine D2 receptor, [3H]Raclopride binding; design: species or system male Wistar rats; conditions: 1.0 nM [3H]Raclopride, rat corpus striatum preparation, 25° C., 60 minutes
# T1 construct: the corpus striatums excised from male Wistar rats were homogenized; from tissue; host or cells: rat corpus striatum membrane homogenate
# Experimental: The affinity of the compounds of the general formulas (I), (II), and (III) with a dopamine D2 receptor was evaluated in accordance with the method of Kakohler et al. (Biochem. Pharmacol., vol. 34, pp. 2251-2259, 1985). That is, the corpus striatums excised from male Wistar rats were homogenized with the addition of 120 mM sodium chloride, 5 mM potassium chloride, 2 mM calcium chloride, 1 mM magnesium chloride, and 0.01% ascorbic acid contained in 50 mM tris-phosphate buffer (pH 7.7). The homogenate was centrifuged at […] and 35000×g for 10 minutes. The same buffer was added to the resultant precipitate,then this was homogenized again and was similarly centrifuged to obtain the precipitate. The same buffer was added to this precipitate which was then again homogenized to prepare the dopamine D2 receptor.
# For the binding experiment, use was made of 1.0 nM of [3H]3,5-dichloro-N-[(1-ethyl-2-pyrrolidinyl)methyl]-6-hydroxy-o-anisamide (Raclopride), various concentrations of test samples were added to a system of 0.34 mg/ml of protein or a total of 0.25 ml, incubation was performed at 25° C. for 60 minutes, then the radioactivity was measured in the same way as in the Evaluation Example 1 to find the degree of binding.
# The 50% inhibiting concentration of binding affinity (IC50) was calculated from the degrees of binding at various concentrations of the added samples. […] The IC50 values of typical compounds are shown together with the IC50 values for the serotonin receptor.
# [1] = target: T2, serotonin 5-HT1A receptor (Rattus norvegicus, UniProt P19327); experiment: Affinity with serotonin receptor, [3H]8-OH-DPAT binding; design: species or system male Wistar rats; conditions: for D2/5-HT1A: ratio of IC50 (D2) to IC50 (5-HT1A)
# T2 construct: the hippocampuses extracted from male Wistar rats were homogenized; from tissue; host or cells: rat hippocampus membrane homogenate
# T2 sequence (P19327 1-422): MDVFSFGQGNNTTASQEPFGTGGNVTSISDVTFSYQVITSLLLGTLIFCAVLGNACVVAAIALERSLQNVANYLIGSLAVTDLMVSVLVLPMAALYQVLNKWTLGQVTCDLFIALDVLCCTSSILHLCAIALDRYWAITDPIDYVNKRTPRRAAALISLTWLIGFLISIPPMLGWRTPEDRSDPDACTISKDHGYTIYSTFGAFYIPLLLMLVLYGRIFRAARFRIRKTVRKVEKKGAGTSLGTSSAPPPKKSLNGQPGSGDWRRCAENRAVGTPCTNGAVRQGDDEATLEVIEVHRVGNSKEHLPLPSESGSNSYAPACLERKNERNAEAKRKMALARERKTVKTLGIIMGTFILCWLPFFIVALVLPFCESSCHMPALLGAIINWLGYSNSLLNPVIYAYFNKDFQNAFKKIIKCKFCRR
# Experimental: The affinity of the compounds of the general formulas (I), (II), and (III) with a serotonin receptor was evaluated in accordance with the method of S. T. Peuroutka et al. (J. Neurochem., vol. 47, pp. 529-540, 1986). That is, the hippocampuses extracted from male Wistar rats were homogenized while adding 50 mM tris-phosphate buffer (pH 7.7). The homogenate was centrifuged at […] and 40000×g for 10 minutes. The same buffer was added to the obtained precipitate, then this was homogenized again and was similarly centrifuged to obtain the precipitate. This homogenization-centrifugation operation was repeated two times to obtain a final precipitate to which was then added 10 uM of N-methyl-N-2-propynylbenzylamine (Pargyline), 4 mM of calcium chloride, and 0.1% ascorbic acid contained in a 50 mM tris-phosphate buffer (ph 7.7). This was then homogenized to prepare the serotonin receptor.
# For the binding experiment, 0.4 nM of [3H]2-di-n-propylamino-8-hydroxy-1,2,3,4-tetrahydronapthalene (8-DPAT; 8-hydroxy-N,N-dipropyl-2-aminotetetrilin) was used, various concentrations of test samples were added to a system of 0.25 mg/ml of protein or a total of 0.25 ml, and these were incubated at 25° C. for 30 minutes. A Whatman GF/C filter was used to filter each of the reaction solutions, then the filter was washed by 20 mM tris-phosphate buffer (pH 7.7). The serotonin receptor was trapped by the filter and the radio activity of the 8-OH-DAPT bonded to it was measured to find the degree of binding. The 50% inhibiting concentration of binding affinity (IC50) was calculated from the degrees of binding in the various sample concentrations. […] The IC50 values of typical compounds are shown together with the IC50 values with respect to the dopamine D2 receptor.
# [2] = 0.4 nM [3H]8-OH-DPAT, rat hippocampus preparation, 25° C., 30 minutes, read-out: IC50 (5-HT1A)
# T1 sequence (P61169 whole entry): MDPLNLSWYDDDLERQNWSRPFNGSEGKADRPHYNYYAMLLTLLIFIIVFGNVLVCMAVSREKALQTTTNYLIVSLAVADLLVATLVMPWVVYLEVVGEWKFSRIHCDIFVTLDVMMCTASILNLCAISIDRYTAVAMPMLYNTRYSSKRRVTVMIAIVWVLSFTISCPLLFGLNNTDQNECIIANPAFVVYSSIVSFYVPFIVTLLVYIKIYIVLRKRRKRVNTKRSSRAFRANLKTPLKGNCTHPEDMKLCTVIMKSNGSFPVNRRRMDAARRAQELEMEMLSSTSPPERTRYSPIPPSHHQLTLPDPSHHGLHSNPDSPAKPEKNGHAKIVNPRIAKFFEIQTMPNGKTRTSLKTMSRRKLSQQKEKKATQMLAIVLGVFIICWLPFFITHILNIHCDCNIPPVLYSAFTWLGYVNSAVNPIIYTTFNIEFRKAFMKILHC
IC50 (dopamine D2 receptor),"IC50 [1, 2]",D2/5-HT1A [1],Structure (SMILES),minimal effective dose (male Wistar rats),IC50 [1]
–,–,–,"CCC1=COc2ccccc2C(=O)N1CCCCN1CCN(c2ccccn2)CC1 [Example 36, 4,5-dihydro-3-ethyl-4-(4-(4-(2-pyridyl)piperazin-1-yl)butyl)-1,4-benzoxazepin-5-one]",30 mg/kg,–
266 nM,1.7 nM,156,"CC1=COc2ccc(F)cc2C(=O)N1CCCCN1CCN(c2cccc(Cl)n2)CC1 [Example 41, 4-(4-(4-(2-chloropyridin-6-yl)piperazin-1-yl)butyl)-4,5-dihydro-7-fluoro-3-methyl-1,4-benzoxazenin-5-one]",10 mg/kg,–
1390 nM,3.8 nM,366,"O=C1c2ccccc2OC=C(Cl)N1CCCCN1CCN(c2ncnc3ccccc23)CC1 [Example 47, 3-chloro-4,5-dihydro-4-(4-(4-(4-quinazolyl)piperazin-1-yl)butyl)-1,4-benzoxazepin-5-one]",–,–
405 nM,0.88 nM,460,"Cc1ccc2c(c1)C(=O)N(CCCCN1CCN(c3ncccn3)CC1)C(Cl)=CO2 [Example 49, 3-chloro-4,5-dihydro-7-methyl-4-(4-(4-(2-pyrimidinyl)-piperazin-1-yl)butyl)-1,4-benzoxazepin-5-one]",–,–
–,–,–,"CC1=COc2ccccc2C(=O)N1CCCCN1CCC(c2ncccn2)CC1 [Example 54, 4,5-dihydro-3-methyl-4-(4-(4-(2-pyrimidinyl)piperidin-1-yl)butyl)-1,4-benzoxazepin-5-one]",10 mg/kg,–
1800 nM,5.81 nM,310,"O=C1c2ccccc2OC=C(Cl)N1CCCCN1CCC(c2ncccn2)CC1 [Example 57, 3-chloro-4,5-dihydro-4-(4-(4-(2-pyrimidinyl)piperidin-1-yl)butyl)-1,4-benzoxazepin-5-one]",–,–
359 nM,0.44 nM,816,"O=C1c2ccc(Cl)cc2OC=C(Cl)N1CCCCN1CCC(c2ccccn2)CC1 [Example 67, 3,8-dichloro-4,5-dihydro-4-(4-(4-(2-pyridyl)piperidin-1-yl)butyl)-1,4-benzoxazepin-5-one]",–,–

Structure (SMILES),IC50 (dopamine D2 receptor),"IC50 [1, 2]",D2/5-HT1A [1],minimal effective dose (male Wistar rats),IC50 [1]
"CC1=COc2ccccc2C(=O)N1CCCCN1CC=C(c2ncccn2)CC1 [Example 53, 4,5-dihydro-3-methyl-4-(4-(4-(2-pyrimidinyl)-1,2,5,6-tetrahydropyridin-1-yl)butyl)-1,4-benzoxazepin-5-one]",979 nM,–,89,–,11 nM
"CC1=COc2ccc(F)cc2C(=O)N1CCCCN1CC=C(c2ncccn2)CC1 [Example 55, 4,5-dihydro-7-fluoro-3-methyl-4-(4-(4-(2-pyrimidinyl)-1,2,5,6-tetrahydropyridin-1-yl)butyl)-1,4-benzoxazepin-5-one]",1250 nM,–,96,–,13 nM
"O=C1c2ccc(Cl)cc2OC=C(Cl)N1CCCCN1CC=C(c2ccccn2)CC1 [Example 66, 3,8-dichloro-4,5-dihydro-4-(4-(4-(2-pyridyl)-1,2,5,6-tetrahydropyridin-1-yl)butyl)-1,4-benzoxazepin-5-one]",128 nM,–,221,–,0.58 nM
"CC1=COc2ccc(C)cc2C(=O)N1CCCCN1CC=C(c2ccccn2)CC1 [Example 74, 4,5-dihydro-3,7-dimethyl-4-(4-(4-(2-pyridyl)-1,2,5,6-tetrahydropyridin-1-yl)butyl)-1,4-benzoxazepin-5-one]",338 nM,–,77,–,4.41 nM
